Test results published in patent US9234168B2, “Compositions containing amino acids, phosphate and manganese and their uses” (The Henry M. Jackson Foundation for the Advancement of …, priority 2010, dated 2016).

Key:
E. coli = assay type: cell-based, Escherichia coli; details: 3 kGy; TGY supplemented with 1 μM Mn^2+, 13 mM phosphate, 3 mM uridine or 384 mM (3%) DMSO individually
Experimental: FIG. 3 depicts the survival curves of E. coli exposed to acute IR and grown in the presence of various supplements: TGY, standard peptide-rich growth medium; DMSO, dimethyl sulfoxide; UMnP, 3 mM uridine/1 μM Mn^2+/13 mM PiB (phosphate buffer).
Individually and in combination, the radioprotective properties of Mn^2+, phosphate, uridine and DMSO were determined using E. coli grown in TGY medium; TGY is a peptide-rich medium based on yeast extract, and contains approximately 200 nM Mn.

mammalian cell line = assay: Radioprotection of a mammalian cell line; assay type: cell-based; details: agent alone
Excerpt: (§1) Applicants have shown that adenosine alone and Mn(II) alone are radioprotective […] for a mammalian cell line and for a bacterial cell culture.

bacterial cell culture = assay: Radioprotection of a bacterial cell culture; assay type: cell-based; details: agent alone
Excerpt: as §1

Compound | increase of the resistance of E. coli (E. coli) | radioprotection of a mammalian cell line (mammalian cell line) | radioprotection of a bacterial cell culture (bacterial cell culture)
phosphate | 800 times |  | 
Nc1ncnc2c1ncn2[C@@H]1O[C@H](CO)[C@@H](O)[C@H]1O [adenosine] |  | radioprotective | radioprotective
[Mn+2] [Mn^2+] | did not increase the resistance | radioprotective | radioprotective
O=c1ccn([C@@H]2O[C@H](CO)[C@@H](O)[C@H]2O)c(=O)[nH]1 [uridine] | 50 times |  | 
C[S+](C)[O-] [DMSO, dimethyl sulfoxide] | 50 times |  | 
